# Reference: ChEMBL document CHEMBL5154917 (J Med Chem, 2022)
# Active and inactive are the calls of the source. The rule behind the calls is not given here.
# Key:
# HT-29 = test: Antiproliferative activity against human HT-29 cells assessed as cell growth inhibition incubated for 72 hrs by CCK-8 assay; conditions: HT-29, 72 h
# MKN-1 [1] = test: Antiproliferative activity against human MKN-1 cells assessed as cell growth inhibition incubated for 72 hrs by CCK-8 assay; conditions: MKN-1, 72 h
# [2] = biological target: T1, Serine/threonine-protein kinase RIO3 (Homo sapiens) (UniProt O14730); test: Binding affinity to RIOK3 in human MKN-1 cells assessed as negative shift in melting temperature at 5 uM incubated for 3 hrs followed by heat treatment at 52 to 62 degC for 3 mins by CETSA; type: cell-based; conditions: time 183.0 min
# T1 sequence (whole entry): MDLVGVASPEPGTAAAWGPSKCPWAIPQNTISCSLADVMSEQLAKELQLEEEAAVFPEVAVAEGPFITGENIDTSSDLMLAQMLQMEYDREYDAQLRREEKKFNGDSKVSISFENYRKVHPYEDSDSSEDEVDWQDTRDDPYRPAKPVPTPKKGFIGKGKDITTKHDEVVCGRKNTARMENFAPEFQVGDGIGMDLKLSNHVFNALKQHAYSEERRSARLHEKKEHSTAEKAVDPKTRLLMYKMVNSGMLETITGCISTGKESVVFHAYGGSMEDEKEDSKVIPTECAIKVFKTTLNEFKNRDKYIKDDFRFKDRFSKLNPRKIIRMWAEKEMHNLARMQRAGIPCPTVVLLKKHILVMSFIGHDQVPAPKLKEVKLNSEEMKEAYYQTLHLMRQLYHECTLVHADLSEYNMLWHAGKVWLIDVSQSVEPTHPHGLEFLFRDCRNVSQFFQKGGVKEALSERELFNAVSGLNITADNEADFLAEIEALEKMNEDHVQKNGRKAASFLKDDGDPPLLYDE
# [3] = biological target: T2, Serine/threonine-protein kinase RIO1 (Homo sapiens) (UniProt Q9BRS2); test: Binding affinity to RIOK1 in human MKN-1 cells assessed as negative shift in melting temperature at 5 uM incubated for 3 hrs followed by heat treatment at 52 to 62 degC for 3 mins by CETSA; type: cell-based; conditions: time 183.0 min
# T2 sequence (whole entry): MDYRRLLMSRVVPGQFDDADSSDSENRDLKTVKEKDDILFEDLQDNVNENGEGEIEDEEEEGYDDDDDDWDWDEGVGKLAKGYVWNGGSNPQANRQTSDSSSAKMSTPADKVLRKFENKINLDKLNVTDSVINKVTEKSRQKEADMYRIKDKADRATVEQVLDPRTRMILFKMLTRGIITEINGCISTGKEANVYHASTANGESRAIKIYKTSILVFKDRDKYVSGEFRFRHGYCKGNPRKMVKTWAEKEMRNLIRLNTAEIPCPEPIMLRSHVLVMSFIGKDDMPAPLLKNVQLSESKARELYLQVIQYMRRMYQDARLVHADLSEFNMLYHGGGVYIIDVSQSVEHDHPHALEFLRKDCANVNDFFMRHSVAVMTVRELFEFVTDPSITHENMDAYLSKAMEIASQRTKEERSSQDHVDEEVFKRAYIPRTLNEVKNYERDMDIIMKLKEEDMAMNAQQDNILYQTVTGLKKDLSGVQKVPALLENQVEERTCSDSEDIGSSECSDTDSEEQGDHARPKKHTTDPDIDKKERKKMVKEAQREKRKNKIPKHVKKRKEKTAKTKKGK
# [4] = Cmax in Sprague-Dawley rat administered orally; type: ADME; design: route po; conditions: in vivo, po
# [5] = biological target: T1, Serine/threonine-protein kinase RIO3 (Homo sapiens); test: Binding affinity to wild-type human full length RIOK3 (M1 to E519 residues) expressed in bacterial expression system assessed as residual activity at 1 uM by KINOMEscan assay relative to control
# [6] = Solubility of compound in organic solvents; type: physicochemical
# [7] = Aqueous solubility of the compound; type: physicochemical; conditions: buffer
# [8] = biological target: T2, Serine/threonine-protein kinase RIO1 (Homo sapiens); test: Binding affinity to wild-type human full length RIOK1 (M1 to K568 residues) expressed in bacterial expression system assessed as residual activity at 1 uM by KINOMEscan assay relative to control
# [9] = Toxicity in CB17-SCID mouse xenografted with human MKN-1 cells assessed as side effects at 25 mg/kg, ip qd for 18 consecutive days; type: organism-based; conditions: in vivo, 432 h, time 18 day
# [10] = tested on: T3, Receptor-type tyrosine-protein kinase FLT3 (Homo sapiens), P36888 [D835V]; test: Binding affinity to human partial length FLT3 D835V mutant (V592 to Y969 residues) expressed in mammalian expression system assessed as residual activity at 1 uM by KINOMEscan assay relative to control
# T3 sequence (whole entry): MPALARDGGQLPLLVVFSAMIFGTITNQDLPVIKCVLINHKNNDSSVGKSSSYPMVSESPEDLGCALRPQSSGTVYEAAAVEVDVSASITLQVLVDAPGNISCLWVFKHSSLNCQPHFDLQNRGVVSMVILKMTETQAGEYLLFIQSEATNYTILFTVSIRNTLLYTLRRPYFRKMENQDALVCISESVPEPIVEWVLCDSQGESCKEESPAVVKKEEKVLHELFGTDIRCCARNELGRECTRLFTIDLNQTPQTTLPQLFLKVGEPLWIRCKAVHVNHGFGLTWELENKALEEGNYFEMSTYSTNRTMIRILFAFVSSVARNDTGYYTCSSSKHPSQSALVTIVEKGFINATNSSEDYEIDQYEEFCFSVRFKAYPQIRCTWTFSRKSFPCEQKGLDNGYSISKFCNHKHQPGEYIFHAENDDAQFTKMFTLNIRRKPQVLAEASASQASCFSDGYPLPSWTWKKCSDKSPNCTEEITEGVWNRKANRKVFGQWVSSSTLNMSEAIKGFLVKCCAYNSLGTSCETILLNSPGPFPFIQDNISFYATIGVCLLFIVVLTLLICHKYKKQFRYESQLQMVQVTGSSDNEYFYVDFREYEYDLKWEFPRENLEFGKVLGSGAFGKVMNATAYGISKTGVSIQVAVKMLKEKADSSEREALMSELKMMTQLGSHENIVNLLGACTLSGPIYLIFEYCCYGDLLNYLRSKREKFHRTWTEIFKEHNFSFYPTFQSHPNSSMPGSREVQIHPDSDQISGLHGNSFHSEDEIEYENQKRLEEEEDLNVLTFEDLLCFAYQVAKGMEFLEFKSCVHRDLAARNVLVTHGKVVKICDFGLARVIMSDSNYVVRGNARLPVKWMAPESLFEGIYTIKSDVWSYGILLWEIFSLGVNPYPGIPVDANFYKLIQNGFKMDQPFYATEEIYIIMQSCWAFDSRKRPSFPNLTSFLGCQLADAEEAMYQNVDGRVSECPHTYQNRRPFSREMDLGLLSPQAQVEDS
# Homo sapiens [11] = species on record: Homo sapiens; test: Binding affinity to human partial length FLT3 ITD F691L mutant expressed in mammalian expression system assessed as residual activity at 1 uM by KINOMEscan assay relative to control
# [12] = Toxicity in CB17-SCID mouse xenografted with human MKN-1 cells assessed as mortality at 25 mg/kg, ip qd for 18 consecutive days; type: organism-based; conditions: in vivo, 432 h, time 18 day
# [13] = Oral bioavailability in Sprague-Dawley rat; type: ADME, organism-based; conditions: in vivo
# MKN-1 [14] = test: Antitumor activity against human MKN-1 cells xenografted in CB17-SCID mouse assessed as tumor growth inhibition at 25 mg/kg, ip qd for 18 consecutive days and measured once every 2 days relative to control; type: functional; conditions: MKN-1, 432 h, time 18 day, read-out: TGI
# Homo sapiens [15] = species on record: Homo sapiens; test: Binding affinity to human partial length FLT3 ITD D835V mutant expressed in mammalian expression system assessed as residual activity at 1 uM by KINOMEscan assay relative to control
IC50 (HT-29) [µM],IC50 (MKN-1 [1]) [µM],SMILES,Activity [2],Activity [3],Cmax [4] [ng/mL],Activity [5] [%],solubility [6],solubility [7],Activity [8] [%],Activity [9],Activity [10] [%],Activity (Homo sapiens [11]) [%],Activity [12],bioavailability [13] [%],inhibition in vivo at 25 mg/kg (MKN-1 [14]) [%],Activity (Homo sapiens [15]) [%]
> 8,> 8,Cc1ccnc(NC(=O)Cc2ccc3ccccc3c2)c1,,,,,,,,,,,,,,
> 8,> 8,COc1ccc(-c2ccc3[nH]c(=O)c4nnn(-c5ccccc5)c4c3c2)cn1,,,,,,,,,,,,,,

SMILES,IC50 (HT-29) [µM],IC50 (MKN-1 [1]) [µM],Activity [2],Activity [3],Cmax [4] [ng/mL],Activity [5] [%],solubility [6],solubility [7],Activity [8] [%],Activity [9],Activity [10] [%],Activity (Homo sapiens [11]) [%],Activity [12],bioavailability [13] [%],inhibition in vivo at 25 mg/kg (MKN-1 [14]) [%],Activity (Homo sapiens [15]) [%]
COc1ccc(-c2ccc3[nH]c(=O)c4nnn(-c5ccc(N6CCNCC6)c(C(F)(F)F)c5)c4c3c2)cn1,0.38,0.61,Active,Active,13,87,Insoluble,Insoluble,100,Non-Toxic,28,3.6,Non-Toxic,3.06,30.9,4
